Holding throughout (assay): NCI tumour cell line growth inhibition, 48 h
In assay [1] the test system is SK-MEL-5.
Assay [2] concerns U-251.
Assay [3] deals with OVCAR-8.
Assay [4] relates to UACC-257.
Assay [5] relates to OVCAR-5.
Assay [6] has as its system A549.
Assay [7] deals with SNB-19.
In assay [8] the test system is KM12.
For assay [9], the system named is COLO 205.
Assay [10] has as its system OVCAR-3.
Assay [11] deals with SR.
Assay [12] deals with NCI/ADR-RES.
Assay [13] concerns HT-29.
Assay [14] deals with Hs-578T.
For assay [15], the system named is MDA-N.
For assay [16], the system named is A498.
The test system of assay [17] is NCI-H226.
For assay [18], the system named is SW-620.
The test system of assay [19] is HCC 2998.
In assay [20] the test system is UO-31.

Each structure is given as a SMILES string.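 Cells were grown in 96-well plates and exposed to each compound for 48 hours at five concentrations; endpoints were interpolated linearly between bracketing concentrations, or set to the highest concentration if not reached. GI50 marks 50% less growth.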 Activity calls are given as the source filed them. No stated cut-off is given here; in the data, active = GI50 up to about 1.1 µM and inactive = higher. Where a SMILES comes first, the peptide text is derived from it. [ ]: non-standard residue; d: D form. The star is where a group is joined. Cbz = O=C(OCc1ccccc1)*; Aib = CC(C)(N)C(=O)O; OBn = c1ccc(CO*)cc1

As to `CC(C)(CCC(C)(C)c1ccccc1)c1ccccc1`, the GI50 in assay [1] was 14.4 µM (inactive); in assay [2], 16.7 µM (inactive); in [3], 27 µM (inactive); in assay [4], 14.3 µM (inactive); in [5], 18.8 µM (inactive); in assay [6] it was 28.8 µM (inactive). Also, the GI50 in assay [7] is 18.3 µM (inactive); in assay [8], 15.3 µM (inactive); in assay [9] it was 18.1 µM (inactive); in assay [10], 16.3 µM (inactive); in assay [11], 21 µM (inactive); in assay [12], 19.5 µM (inactive). Moreover, the GI50 in assay [13] is 14.5 µM (inactive); in [14], 22.1 µM (inactive); in assay [15], 22.2 µM (inactive); in assay [16], 17.9 µM (inactive); in assay [17] it was 20.7 µM (inactive); in assay [18], 17.2 µM (inactive).
For `O=C(NCCC(F)(F)C(F)(F)C(F)(F)C(F)(F)F)NC1OC(CO)C(O)C(O)C1O` (centres undefined), the GI50 in assay [1], in assay [19], in [2], in assay [4], in assay [5] and in assay [6] was > 100 µM (inactive) throughout. Moreover, the GI50 in [7], in assay [8], in assay [9], in [10], in assay [11] and in assay [12] was > 100 µM (inactive) each time. The GI50 in assay [13], in [14], in assay [15], in [20] and in assay [18] was > 100 µM (inactive) throughout.
For `C=CCC1C(=O)Nc2cccc3ncn(c23)C1=O` (centres undefined), the GI50 in assay [1], in [2], in assay [3], in assay [4], in assay [5] and in [6] was > 100 µM (inactive) each time. Moreover, the GI50 in assay [7] is > 100 µM (inactive); in assay [8], 48.9 µM (inactive); in [9], > 100 µM (inactive); in assay [10], > 100 µM (inactive); in assay [11] it was > 100 µM (inactive); in [12], > 100 µM (inactive). Further, the GI50 in assay [13], in [14], in [15], in [16], in assay [17] and in [20] was > 100 µM (inactive) each time. In assay [18], the GI50 was > 100 µM (inactive).
For `CC(NC(=O)C(C)(C)NC(=O)C(CC(=O)OCc1ccccc1)NC(=O)OCc1ccccc1)C(N)=O` (centres undefined) (Cbz-Asp(OBn)-[Aib]-Ala-NH2; configuration not given here), the GI50 in [1], in [19], in [2], in assay [3], in [4] and in assay [5] was > 100 µM (inactive) throughout. Besides, the GI50 in assay [6], in [7], in [8], in [9], in assay [10] and in assay [11] was > 100 µM (inactive) each time. For the same compound, the GI50 in assay [12], in [13], in [14], in assay [15], in assay [17] and in assay [20] was > 100 µM (inactive) in each case. Besides, in [18], the GI50 was > 100 µM (inactive).
With `C=C1CN(C2=NCCO2)C1`, the GI50 in [1], in assay [19], in [3], in [4], in assay [5] and in assay [6] was > 100 µM (inactive) throughout. Also, the GI50 in [7], in assay [8], in assay [9], in assay [10], in assay [11] and in [12] was > 100 µM (inactive) each time. Also, the GI50 in assay [13], in assay [14], in assay [15], in assay [17], in assay [20] and in [18] was > 100 µM (inactive) throughout.
As to `COc1ccc(CNC(C)C(=O)O)cc1` (centres undefined), the GI50 in assay [1], in assay [2], in assay [3], in assay [4], in assay [5] and in assay [6] was > 100 µM (inactive) each time. For the same compound, the GI50 in assay [7], in assay [8], in assay [9], in assay [10], in assay [11] and in assay [12] was > 100 µM (inactive) throughout. Also, the GI50 in assay [13], in assay [14], in [15], in assay [16], in assay [17] and in assay [20] was > 100 µM (inactive) in each case. Further, the GI50 in assay [18] is > 100 µM (inactive).
For `COc1ccc2c(C=O)c3n(c(=O)c2c1OC)CCc1cc2c(cc1-3)OCO2`, the GI50 in assay [1] is 24 µM (inactive); in assay [19], 14.2 µM (inactive); in assay [2], 40.6 µM (inactive); in assay [3], 23.4 µM (inactive); in [4], 32.2 µM (inactive); in [5], > 100 µM (inactive). Besides, the GI50 in assay [6] is 22.3 µM (inactive); in assay [7] it was 76.4 µM (inactive); in [8], 27.9 µM (inactive); in assay [9] it was 15.9 µM (inactive); in [10], 80.5 µM (inactive); in [12], 18.6 µM (inactive). Further, the GI50 in assay [13] is 17.6 µM (inactive); in assay [14] it was > 100 µM (inactive); in assay [15], 20 µM (inactive); in assay [16] it was > 100 µM (inactive); in assay [17] it was > 100 µM (inactive); in assay [20], 51.8 µM (inactive). Further, in [18], the GI50 was 38.6 µM (inactive).
With `CCCCOC(=O)NC(c1ccccc1)C(O)C(=O)OC1C[C@@]2(O)C(OC(=O)c3ccccc3)C3[C@](C)(C(=O)[C@H](OC(C)=O)C(=C1C)C2(C)C)[C@@H](O)C[C@H]1OC[C@@]31OC(C)=O` (some centres undefined), the GI50 in [1] is 0.0102 µM (active); in assay [19], 0.011 µM (active); in assay [2], 0.00807 µM (active); in assay [3], 0.0117 µM (active); in assay [5], 0.015 µM (active); in assay [6], 0.00873 µM (active). In addition, the GI50 in [7] is 0.0361 µM (active); in [8], 0.0031 µM (active); in assay [9], 0.00652 µM (active); in assay [10], 0.00906 µM (active); in assay [11], 0.00499 µM (active); in assay [12] it was 2 µM (inactive). The GI50 was 0.00228 µM (active) in [13]; 0.00191 µM (active) in assay [14]; 0.00176 µM (active) in [15]; 0.0056 µM (active) in assay [16]; 0.176 µM (active) in assay [20]; 0.00627 µM (active) in [18].
For `N=C(N)NS(=O)(=O)c1ccc(NC(=O)c2ccc3nc4ccccc4c(N)c3c2)cc1`, the GI50 in assay [1], in [19], in assay [2], in assay [3], in assay [4] and in [5] was > 100 µM (inactive) in each case. Also, the GI50 in assay [6] was > 100 µM (inactive); in [7], > 100 µM (inactive); in assay [8], 74.6 µM (inactive); in assay [9], > 100 µM (inactive); in [10] it was > 100 µM (inactive); in [11] it was > 100 µM (inactive). For the same compound, the GI50 in assay [12], in assay [13], in [14], in [15], in [17] and in assay [20] was > 100 µM (inactive) in each case. The GI50 in assay [18] is > 100 µM (inactive).
With `CCOc1cc2c(cc1O)C(N)C[C@@H]1[C@@H]2CC[C@]2(C)[C@@H](O)CC[C@@H]12` (some centres undefined), the GI50 in assay [1] is 30.2 µM (inactive); in [19], 36.7 µM (inactive); in assay [2], 37.9 µM (inactive); in assay [3] it was 83.2 µM (inactive); in assay [4] it was 38.6 µM (inactive); in assay [5], > 100 µM (inactive). In addition, the GI50 was 46.7 µM (inactive) in assay [7]; 43.7 µM (inactive) in assay [8]; 52.7 µM (inactive) in [9]; 15.2 µM (inactive) in assay [11]; > 100 µM (inactive) in assay [12]; 42.7 µM (inactive) in assay [13]. The GI50 in assay [14] was 54.7 µM (inactive); in assay [15] it was 23.4 µM (inactive); in assay [16], 34.8 µM (inactive); in [17], 92.7 µM (inactive); in assay [20], 36.9 µM (inactive); in [18], 34 µM (inactive).

Values taken from ChEMBL document CHEMBL1201862, “PubChem BioAssay data set” (2004).
